# Test results reported in patent US10493102B2, “Methods of inhibiting the virulence of a pathogen with an oxidized tannin to treat a gastrointestinal spasm” (priority 2012, dated 2019).
# Columns and labels:
# E. coli = assay: Stability of hydrogen peroxide (bound vs free) in aqueous solution challenged with E. coli; assay type: physicochemical
# From the text: This method tests the stability of the hydrogen peroxide in the combination. The testing methods used follow the standard procedures set-forth by the Clinical and Laboratory Standards Institute (CLSI) and US Pharmacopeia. • i. E. coli was chosen as the bacteria to challenge the stability of the bound compositions and the free hydrogen peroxide. • ii. The hydrogen peroxide concentration was matched to the selected bacteria in order to form a useful curve representing hydrogen peroxide degradation over time for the samples. As such, the hydrogen peroxide was varied from 62.5 ppm to 500 ppm on a fixed E. coli concentration of 10^6 CFU/ml, and a concentration of 125 ppm was chosen as the initial hydrogen peroxide level used to challenge the E. coli over time. • iii. A ratio of 1:1 of the hydrogen peroxide to each of the model compounds and plant extracts was used to form each bound composition, such that 125 ppm of each plant extract was combined with the 125 ppm of the hydrogen peroxide, • iv. The free hydrogen peroxide was added at a concentration of 125 ppm as a control to show the relative stability of the hydrogen peroxide alone in the aqueous solution as compared to the bound compositions.
# FIG. 2A compares stabilities of free hydrogen peroxide to hydrogen peroxide bound to each of: gallic acid (a model polyphenol building block), tannic acid (a model polyphenol), pomegranate husk extract, green tea extract, and Blessed thistle extract. […] In both FIGS. 2A and 2B, there are curves that cannot be identified well individually, as they are identical and overlapping. […]
# [1] = Amount of hydrogen peroxide that remains bound to the polyphenol in dry form; assay type: physicochemical; conditions: dry form redissolved in water; WATERWORKS peroxide test strip
# From the text: Art-recognized procedures, such as those set-forth at least in U.S. Pat. Nos. 3,860,694; 3,864,454; 4,171,280; and 4,966,762, were used as a guide for this study.
# As discussed, one of skill will appreciate that hydrogen peroxide in a free form, for example, would otherwise quickly degrade. The polyphenols were provided from model compounds or plant extracts. A dry form of the compositions was made between (i) gallic acid (a model polyphenol building block from Sigma-Aldrich) and hydrogen peroxide; (ii) tannic acid (a model polyphenol component from Sigma-Aldrich) and hydrogen peroxide; (iii) pomegranate husk extract and hydrogen peroxide; and, (iv) green tea extract and hydrogen peroxide; using the procedures taught herein, including: • i. adding a solution of 35% hydrogen peroxide slowly into each of the gallic acid powder, tannic powder, pomegranate husk extract powder; or green tea extract powder. […]
# [2] = system: IBS patients, abdominal pain; conditions: other studies; cited from earlier work
structure (smiles),measurement,setting,value
"OO [H2O2, hydrogen peroxide]","hydrogen peroxide level, Hours 0","E. coli; 0 h (initial level), 1:1 extract:H2O2, 125 ppm each, E. coli 10^6 CFU/ml",125 ppm
same,"hydrogen peroxide level, Hours 4","E. coli; 4 h, 1:1 extract:H2O2, E. coli 10^6 CFU/ml",15 ppm
same,"hydrogen peroxide level, Hours 8","E. coli; 8 h, 1:1 extract:H2O2, E. coli 10^6 CFU/ml",0 ppm
same,"hydrogen peroxide level, Hours 12","E. coli; 12 h, 1:1 extract:H2O2, E. coli 10^6 CFU/ml",0 ppm
same,"hydrogen peroxide level, Hours 16","E. coli; 16 h, 1:1 extract:H2O2, E. coli 10^6 CFU/ml",0 ppm
same,"hydrogen peroxide level, Hours 20","E. coli; 20 h, 1:1 extract:H2O2, E. coli 10^6 CFU/ml",0 ppm
same,"hydrogen peroxide level, Hours 24","E. coli; 24 h, 1:1 extract:H2O2, E. coli 10^6 CFU/ml",0 ppm
same,hydrogen peroxide level after degradation,E. coli; within about the first 8 hours,~0.0 ppm
O=C(O)c1cc(O)c(O)c(O)c1 [gallic acid],hydrogen peroxide bound by total dry wt,[1],about 3.0%
CN(C)C(=O)C(CCN1CCC(O)(c2ccc(Cl)cc2)CC1)(c1ccccc1)c1ccccc1 [loperamide],effect on abdominal pain symptoms compared with placebo,[2],no different from placebo
O=C(OC[C@H]1O[C@@H](OC(=O)c2cc(O)c(O)c(OC(=O)c3cc(O)c(O)c(O)c3)c2)[C@H](OC(=O)c2cc(O)c(O)c(OC(=O)c3cc(O)c(O)c(O)c3)c2)[C@@H](OC(=O)c2cc(O)c(O)c(OC(=O)c3cc(O)c(O)c(O)c3)c2)[C@@H]1OC(=O)c1cc(O)c(O)c(OC(=O)c2cc(O)c(O)c(O)c2)c1)c1cc(O)c(O)c(OC(=O)c2cc(O)c(O)c(O)c2)c1 [tannic acid],hydrogen peroxide bound by total dry wt,[1],about 2.5%
